# Source: paper PMC3257379 (Amino Acids, 2011)
# Positions of bridges follow the written chain, without caps; N, C: chain ends. No end group written: not given here.
# Columns and labels:
# [1] = test system: tumor-draining brachial LNs of 4T1 tumor-bearing BALB/C mice; assay: Ex vivo optical; assay type: in vivo, mouse; settings: day 21 after tumor inoculation; 0.8 nmol, 24 h post injection; no blocking; n = 3/group
# MDA-MB-435 xenografts = settings: systemic LyP-1 peptide treatment of xenografted tumor mice; ref Laakkonen et al. 2004; cited from earlier work
substance,measurement,setting,value
Cy5.5,Average signal of tumor-draining LNs,[1],25.6 ± 0.25 ×10^3 photon/cm^2/s
CGNKRTRGC (disulfide 1-9 (inferred)) [LyP-1],Effect on tumor growth,MDA-MB-435 xenografts,inhibited tumor growth
